Some test systems named below: CCRF-CEM leukemia; HCT-116 colon; HL-60(TB) leukemia; HOP-62 NSCLC; HS 578T breast; HT29 colon; K-562 leukemia; NCI-H460 lung; SF-268 CNS; SNB-75 CNS.
What all share (experiment): NCI tumour cell line growth inhibition, 48 h

This passage reports GI50 and TGI results from PubChem BioAssay (NCI).

Structures are written as SMILES. Where “and” joins values, the source holds several entries; their conditions need not be identical. Identical values can stand only once.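 Growth conditions: 96-well plates. Treatment: test compound, 48 hours, 5 concentrations. Analysis: linear interpolation between bracketing concentrations; unreached endpoints set to highest concentration. GI50 marks 50% less growth. TGI marks complete inhibition of growth.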 Where only a bound is given, the exact number is not on record here.

As for `COc1ccc(OCC(O)CN2CCN(c3ccc(Cl)cc3)CC2)cc1` (configuration not stated), the GI50 is greater than 100 µM with CCRF-CEM leukemia; greater than 100 µM in the assay with HCT-116 colon; greater than 100 µM in the assay on HL-60(TB) leukemia; 28.4 µM in the assay on HOP-62 NSCLC; greater than 100 µM with HS 578T breast; greater than 100 µM in the assay on HT29 colon. Further, the GI50 was greater than 100 µM in the assay on K-562 leukemia, greater than 100 µM with NCI-H460 lung, 80.6 µM in the assay on SF-268 CNS and 17 µM in the assay on SNB-75 CNS. The TGI in the assay with CCRF-CEM leukemia, in the assay on HCT-116 colon, with HL-60(TB) leukemia, in the assay with HOP-62 NSCLC, in the assay with HS 578T breast and with HT29 colon was greater than 100 µM throughout. The TGI was greater than 100 µM with K-562 leukemia, greater than 100 µM with NCI-H460 lung, greater than 100 µM with SF-268 CNS and 83.5 µM in the assay on SNB-75 CNS.

Regarding `Cc1ccc(S(=O)(=O)N2CCC(C(=O)O)(c3ccccc3)CC2)cc1`, the TGI in the assay with CCRF-CEM leukemia, with HCT-116 colon, with HL-60(TB) leukemia, in the assay with HOP-62 NSCLC, with HS 578T breast and with HT29 colon was greater than 100 µM throughout. Moreover, the TGI in the assay on K-562 leukemia, in the assay on NCI-H460 lung, in the assay on SF-268 CNS and in the assay on SNB-75 CNS was greater than 100 µM in each case.

`N/C(=N\C(N)=N\c1nc2ccccc2s1)c1cnccn1`: the GI50 with CCRF-CEM leukemia is 3.59 µM; with HL-60(TB) leukemia, 2.68 µM; in the assay on HOP-62 NSCLC, 2.92 µM; with HS 578T breast it was 4.7 µM; in the assay with HT29 colon, 2.87 µM; in the assay on K-562 leukemia, 3.69 µM. Moreover, the results for the GI50 with NCI-H460 lung, in the assay with SF-268 CNS and in the assay with SNB-75 CNS were 3.59 µM, 4.74 µM and 2.15 µM, respectively. In addition, the TGI was greater than 100 µM in the assay with CCRF-CEM leukemia; 51.5 µM with HL-60(TB) leukemia; 16.1 µM with HOP-62 NSCLC; greater than 100 µM with HS 578T breast; greater than 100 µM in the assay on HT29 colon; greater than 100 µM in the assay with K-562 leukemia. Besides, the TGI with NCI-H460 lung is greater than 100 µM; in the assay on SF-268 CNS it was greater than 100 µM; with SNB-75 CNS, 15.3 µM.

In the case of `C#CC#CC#CC#CC#CC#CC#CC#CC[C@@H]1OC[C@@H](COC(=O)O[C@@H](C(=O)O[C@H]2C[C@@]3(O)[C@@H](OC(=O)c4ccccc4)[C@@H]4[C@]5(OC(C)=O)CO[C@@H]5C[C@H](O)[C@@]4(C)C(=O)[C@H](OC(C)=O)C(=C2C)C3(C)C)[C@@H](NC(=O)c2ccccc2)c2ccccc2)O1`, the GI50 in the assay with CCRF-CEM leukemia was 0.354 µM; in the assay with HCT-116 colon, 0.0919 µM; in the assay on HL-60(TB) leukemia it was 0.163 µM; in the assay with HOP-62 NSCLC, 1.13 µM; with HS 578T breast, 0.239 µM; with HT29 colon, 0.095 µM. The GI50 is 0.17 µM in the assay on K-562 leukemia, 0.101 µM with NCI-H460 lung, 0.593 µM in the assay on SF-268 CNS and 0.0599 µM with SNB-75 CNS. The TGI with CCRF-CEM leukemia is greater than 33.3 µM; in the assay with HCT-116 colon, greater than 33.3 µM; in the assay with HL-60(TB) leukemia it was greater than 33.3 µM; with HOP-62 NSCLC it was greater than 33.3 µM; in the assay with HS 578T breast, greater than 8.14 µM; in the assay with HT29 colon, greater than 33.3 µM. Moreover, the TGI with K-562 leukemia was greater than 33.3 µM; in the assay on NCI-H460 lung it was greater than 33.3 µM; with SF-268 CNS it was greater than 33.3 µM; in the assay on SNB-75 CNS, 0.469 µM.

Turning to `Nc1nc(=S)c2[nH]cnc2[nH]1`, the GI50 with CCRF-CEM leukemia is 0.227 µM and 0.314 µM and 0.488 µM; in the assay with HCT-116 colon it was 0.336 µM; with HL-60(TB) leukemia, 0.894 µM; in the assay with HOP-62 NSCLC, 0.472 µM; in the assay with HS 578T breast, 4.13 µM; in the assay on HT29 colon it was 0.544 µM. For the same compound, the GI50 in the assay with K-562 leukemia is 0.488 µM; in the assay on NCI-H460 lung it was 0.332 µM and 0.989 µM; in the assay with SF-268 CNS, 0.525 µM and 0.926 µM. Besides, the TGI in the assay with HL-60(TB) leukemia was 9.38 µM and 17.5 µM and 2.37 µM; with HOP-62 NSCLC, > 31.8 µM and 29.6 µM and 94.9 µM; with HT29 colon, 121 µM and > 250 µM; in the assay on K-562 leukemia, 74.1 µM and 8.6 µM; with NCI-H460 lung, 7 µM and 16.8 µM and 19.8 µM; in the assay on SF-268 CNS, > 100 µM and 149 µM and 84 µM. Moreover, the TGI with SNB-75 CNS was > 86 µM and 45.8 µM and > 250 µM.

For `Cn1ccnc1C(=O)/C=C/c1ccc(C(=O)Nc2c(F)c(F)c(F)c(F)c2F)cc1`, the GI50 is 1.68 µM in the assay with CCRF-CEM leukemia; 1.17 µM in the assay on HCT-116 colon; 1.8 µM in the assay with HL-60(TB) leukemia; 2.77 µM with HOP-62 NSCLC; 2.1 µM in the assay with HS 578T breast; 1.77 µM in the assay on HT29 colon. The GI50 in the assay with K-562 leukemia was 0.526 µM; with NCI-H460 lung, 1.78 µM; in the assay with SF-268 CNS, 1.81 µM; in the assay with SNB-75 CNS, 1.33 µM. Moreover, the TGI with CCRF-CEM leukemia is 4.95 µM; in the assay on HCT-116 colon, 2.48 µM; in the assay on HL-60(TB) leukemia it was 4.74 µM; with HOP-62 NSCLC, 8.71 µM; in the assay with HS 578T breast, 6.44 µM; in the assay with HT29 colon it was 3.89 µM. Also, the TGI was determined as 2.83 µM in the assay with K-562 leukemia, 5.11 µM in the assay with NCI-H460 lung, 4.42 µM in the assay on SF-268 CNS and 2.69 µM with SNB-75 CNS.

Take `Cc1ccnc(Nc2ccc([N+](=O)[O-])c(NCCN3CCOCC3)n2)c1`: the GI50 was 0.0182 µM and 0.0265 µM in the assay on CCRF-CEM leukemia; 0.00663 µM in the assay with HCT-116 colon; 0.0144 µM in the assay with HL-60(TB) leukemia; 0.00657 µM with HOP-62 NSCLC; 0.0277 µM in the assay with HS 578T breast; 0.00438 µM with HT29 colon. Moreover, the GI50 with K-562 leukemia is 0.00368 µM; in the assay on NCI-H460 lung it was 0.00431 µM; with SF-268 CNS, 0.00926 µM and 0.059 µM; with SNB-75 CNS, 0.00243 µM. Further, the TGI with CCRF-CEM leukemia is 20.6 µM; in the assay on HL-60(TB) leukemia, 0.0464 µM; with HOP-62 NSCLC it was 71.8 µM; in the assay with HS 578T breast it was 22.7 µM; in the assay on HT29 colon, 18.3 µM; with K-562 leukemia, greater than 100 µM. Further, the TGI in the assay with NCI-H460 lung is greater than 100 µM; in the assay on SF-268 CNS it was 42.4 µM; with SNB-75 CNS it was 20.1 µM.

`O=NN(CCCl)C(=O)NC1CCCCC1`: the GI50 is 8.23 µM and 22.6 µM in the assay on CCRF-CEM leukemia; 21 µM in the assay with HCT-116 colon; 41.5 µM and 41 µM in the assay with HL-60(TB) leukemia; 51.9 µM and 113 µM in the assay with HOP-62 NSCLC; 36.6 µM and 64.3 µM in the assay on HT29 colon; 10.9 µM and 36.6 µM in the assay on K-562 leukemia. Moreover, the GI50 in the assay on NCI-H460 lung is 24.1 µM and 67.7 µM; in the assay on SF-268 CNS it was 21 µM and 33.6 µM; with SNB-75 CNS, 23.3 µM and 42.1 µM. Also, the TGI with CCRF-CEM leukemia is 40.9 µM and 98.4 µM and 57.5 µM; in the assay on HCT-116 colon, 50.2 µM and 105 µM; in the assay on HL-60(TB) leukemia, 69.9 µM and > 80.6 µM and 83.8 µM; with HOP-62 NSCLC, 154 µM and 213 µM; in the assay with HS 578T breast, 104 µM; with HT29 colon, 139 µM and 165 µM. For the same compound, the TGI was 43.9 µM and 228 µM and 106 µM with K-562 leukemia; 69.2 µM and 124 µM and 187 µM in the assay on NCI-H460 lung; 57.9 µM and 120 µM and 235 µM in the assay with SF-268 CNS; 64.5 µM and 112 µM and 108 µM in the assay on SNB-75 CNS.
